In patent US6878751B1, “Administration of resveratrol to treat inflammatory respiratory disorders” (Imperial College of Science Technology and Medicine, priority 2000, dated 2005):

What was measured:
[1] = test system: Individuals at risk for ILD; assay: Oral resveratrol for chemoprevention of ILD in individuals at risk (Example 11); format: in vivo, human; conditions: 2 to 5 years
Method: Resveratrol is evaluated clinically for efficacy in chemoprevention of ILD in smokers. The study is generally patterned after the COPD chemoprevention study (Example 10) with modifications appropriate to the clinical and histopathologic evaluation of ILD, and the references listed in the preceding examples may be applied as appropriate. Individuals at risk with no disease or mild COPD are treated once or more per day with gelatin capsules containing resveratrol. A population of individuals at risk for a specific ILD, such as silicosis can be studied, or several such populations such as sand blasters (silicosis) and coal miners can be studied in parallel The different populations are subdivided into subpopulations: clinically and histopathologically disease free, clinically asymptomatic with histopathologic inflammation and mildly ILD symptomatic, meaning some fibrosis but no pulmonary impairment causing hypoxemia or acidosis. […] Patients are medically monitored for clinical symptoms of ILD throughout the study, including onset of symptoms and frequency and severity thereof. […] Forced expiratory volume (FEV) and forced inspiratory volume (FIV) are also evaluated to measure airway patency as a direct measure of clinical morbidity and to determine correlation the histopathologic and other indicators of clinical disease. […]

[2] = test system: NF-κB dependent transcription; assay: NF-κB luciferase reporter in stably transfected A549 cells; format: cell-based, human
Method: The expression of inflammatory genes was then evaluated in cells transformed with luciferase reporter genes containing sites for transcription factors (Tf, Tfs). The A549 cells were stably transfected by routine methods with luciferase reporters containing the transcription factors NF-κB, TRE (AP-1, TPA responsive element) and CRE (cAMP responsive element). Luciferase activity of cell lysates resuspended in […] cell lysis buffer mixed (40 mml resuspended lysate: 40 mml assay reagent) was measured using the Luciferase Assay System (Promega), with emitted light measured by a Turner DesignsTD-20/20 luminometer (Steptech Instruments Ltd., Stevenage, U.K.)

[3] = test system: patients resistant to existing pulmonary steroid therapy; assay: Resveratrol supplementation vs increasing steroid dose in steroid resistant asthma (Example 7); format: in vivo, human; conditions: oral or pulmonary resveratrol added to inhaled steroid
From the text: Instead of steroid naive chid asthmatic patients (children are chosen because of the increased gravity of systemic endocrine effects for children, but adults can be analogously studied) selected in Example 6, patients reesistant to existing pulmonary steroid therapy are selected. The study is otherwise analogous to the study in […], except that in the first two groups the oral or inhaled resveratrol supplements the inhaled steroid dose being administered prior to the beginning of the evaluation, while the third group has the dosage of inhaled steroid being administered prior to the study doubled. Alternatively the third group can receive oral prednisone in the appropriate systemic dose. The evaluation is otherwise performed identically to that in Example 6.

[4] = test system: IL-8 release, 16HBE-16o^− cells; assay: IL-8 release (ELISA) in IL-1β stimulated 16HBE-16o− cells; format: cell-based; conditions: Homo sapiens, 1 ng/ml IL-1β, read-out: EC50 for inhibition of the release of IL-8
Method: The human airway epithelial cell line A549 may be employed to study resveratrol inhibition of the release of IL-8 (interleukin 8) and GM-CSF (granulocyte macrophage-colony stimulating factor) by a 1 ng/ml stimulation with IL-1β (interleukin 1β). A549 cells, BEAS-2B cells and 16HBE-16o^− cells were stimulated with 1 ng/ml levels of IL-1β in the presence of resveratrol.
Cells, including the A549 cells, were cultured in Dulbecco's modified Eagle's medium (DMEM) 10% (v/v) fetal calf serum (FCS), 100 μg/ml penicillin and 100 μg/ml streptomycin. IL-8 release was measured by commercially available ELISA kit (R&D Systems).

[5] = test system: COPD patients; assay: Oral resveratrol clinical evaluation in COPD (Example 8); format: in vivo, human; conditions: oral, 200, 2000 or 3000 mg/day, about six months
Method: Resveratrol is evaluated clinically for efficacy in treating COPD. The study is generally patterned after the asthma studies with modifications appropriate to the clinical and histopathologic evaluation of COPD disease, and the references listed in the preceding examples may be applied as appropriate. Smokers are treated once or more per day with gelatin capsules containing resveratrol. The different populations of COPD patients are subdivided into subpopulations: emphysema patients, bronchitis patients and other COPD. Patients are divided randomly and blindly into four approximately equal groups that receive either 0 (placebo), 200, 2000, or 3000 mg/day resveratrol for about six months in oral doses of 0, 50, 500, or 750 mg administered 4 times daily for about six months.
Patients are medically monitored for clinical symptoms of COPD throughout the study, including frequency and severity of hypoxemic and respiratiry acidotic exacerbations. In addition, induced sputum samples are obtained from the patients at days 0, 30, 90, and 180 and neutrophil counts are performed and the samples are assayed for IL-8 and myeloperoxidase by routine methods. Forced expiratory volume (FEV) and forced inspiratory volume (FIV) are also evaluated to measure airway patency as a direct measure of clinical morbidity and to determine correlation the histopathologic and other indicators of clinical disease. […]

Oc1ccc(/C=C/c2cc(O)cc(O)c2)cc1 [Resveratrol, 3,5,4′-trihydroxystilbene] was tested, and the side effects ([1]; oral, relative to those expected from steroid administration) was “without significant side effects”, the “efficacy in chemoprevention of ILD” value ([1]; oral, 200, 2000 or 3000 mg/day) was “effective for chemoprevention of ILD” and the “extent of inhibition of NF-κB dependent transcription” value [2] was “completely”. For the same compound, the EC50 ([2]; Homo sapiens, read-out: EC50 for inhibition of NF-κB dependent transcription) was 21 ± 7 µM, the “systemic side effects compared with doubling steroid dosage” value [3] was “reduced systemic side effects compared with doubling steroid dosage” and the “efficacy as supplement to existing steroid therapy vs doubling inhaled steroid dose” value ([3]; steroid resistant asthma) was “as or more effective as supplements to existing steroid therapy for antiinflammatory treatment than doubling inhaled steroid dose”. For the same compound, the EC50 [4] was 8.9 ± 3.5 µM and the “efficacy in treating COPD” value [5] was “effective for treating COPD”.
